Eleven molecules from ChEMBL document CHEMBL2074414, “Molecular and functional characterization of organic cation/carnitine transporter family in mice” (J Biol Chem, 2000) can be followed below.

Series [1] deals with T1, Organic cation/carnitine transporter 2 (Mus musculus, UniProt Q9Z0E8).
T1 sequence (Q9Z0E8 whole entry): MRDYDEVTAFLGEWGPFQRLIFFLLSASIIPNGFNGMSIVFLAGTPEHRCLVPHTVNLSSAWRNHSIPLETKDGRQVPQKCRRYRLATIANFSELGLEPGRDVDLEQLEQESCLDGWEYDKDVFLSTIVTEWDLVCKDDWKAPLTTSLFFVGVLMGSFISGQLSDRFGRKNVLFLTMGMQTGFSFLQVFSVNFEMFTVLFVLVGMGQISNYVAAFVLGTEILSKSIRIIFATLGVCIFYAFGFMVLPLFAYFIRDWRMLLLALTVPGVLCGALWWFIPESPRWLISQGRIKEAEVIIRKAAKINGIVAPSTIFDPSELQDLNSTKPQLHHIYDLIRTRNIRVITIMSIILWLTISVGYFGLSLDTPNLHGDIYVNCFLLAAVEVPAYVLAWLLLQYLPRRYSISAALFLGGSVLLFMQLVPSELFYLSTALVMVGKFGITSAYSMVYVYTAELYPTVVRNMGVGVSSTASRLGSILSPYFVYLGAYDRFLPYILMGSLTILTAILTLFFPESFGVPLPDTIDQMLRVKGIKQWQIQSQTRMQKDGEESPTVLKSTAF
The series can be described thus: TP_TRANSPORTER: inhibition of carnitine uptake by Butyryl-carnitine at 5uM in Octn2-HEK cells. In kind it is functional, cell-based. Details: scale not given: the % may be the effect or the level left. Particulars: human, hek293, 5 µM.

In series [2] the target is T2, Solute carrier family 22 member 21 (Mus musculus) (UniProt Q9WTN6).
T2 sequence (whole entry): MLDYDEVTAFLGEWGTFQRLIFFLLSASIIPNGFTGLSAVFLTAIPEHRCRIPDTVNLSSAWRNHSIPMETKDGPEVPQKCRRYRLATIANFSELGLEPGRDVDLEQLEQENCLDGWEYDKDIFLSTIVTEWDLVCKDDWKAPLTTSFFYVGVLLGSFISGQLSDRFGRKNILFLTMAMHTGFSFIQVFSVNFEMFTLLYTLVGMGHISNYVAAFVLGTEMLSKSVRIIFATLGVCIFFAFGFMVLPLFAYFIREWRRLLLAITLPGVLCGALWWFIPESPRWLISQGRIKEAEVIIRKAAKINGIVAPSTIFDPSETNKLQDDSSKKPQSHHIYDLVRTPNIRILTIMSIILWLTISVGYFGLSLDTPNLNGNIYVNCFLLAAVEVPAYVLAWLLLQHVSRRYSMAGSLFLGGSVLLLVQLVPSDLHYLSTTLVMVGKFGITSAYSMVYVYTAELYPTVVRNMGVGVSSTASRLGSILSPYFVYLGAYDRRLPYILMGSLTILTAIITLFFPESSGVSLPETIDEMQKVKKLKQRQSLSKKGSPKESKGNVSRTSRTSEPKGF
The series can be described thus: TP_TRANSPORTER: inhibition of carnitine transport by Butyryl-carnitine at 5uM in Octn3-HEK cells. Format: functional, cell-based. Details: scale not given: the % may be the effect or the level left. To be noted: HEK293.

For series [3], the target named is T3, Octn2 (Organic cation/carnitine transporter 2) (Mus musculus, UniProt Q9Z0E8).
T3 sequence (Q9Z0E8 whole entry): T1 sequence (Q9Z0E8 whole entry)
Put plainly: in vitro. To be noted: human, Octn2-HEK cells, probe carnitine.

Series [4] addresses T4, Solute carrier family 22 member 4 (Mus musculus, UniProt Q9Z306).
T4 sequence (Q9Z306 whole entry): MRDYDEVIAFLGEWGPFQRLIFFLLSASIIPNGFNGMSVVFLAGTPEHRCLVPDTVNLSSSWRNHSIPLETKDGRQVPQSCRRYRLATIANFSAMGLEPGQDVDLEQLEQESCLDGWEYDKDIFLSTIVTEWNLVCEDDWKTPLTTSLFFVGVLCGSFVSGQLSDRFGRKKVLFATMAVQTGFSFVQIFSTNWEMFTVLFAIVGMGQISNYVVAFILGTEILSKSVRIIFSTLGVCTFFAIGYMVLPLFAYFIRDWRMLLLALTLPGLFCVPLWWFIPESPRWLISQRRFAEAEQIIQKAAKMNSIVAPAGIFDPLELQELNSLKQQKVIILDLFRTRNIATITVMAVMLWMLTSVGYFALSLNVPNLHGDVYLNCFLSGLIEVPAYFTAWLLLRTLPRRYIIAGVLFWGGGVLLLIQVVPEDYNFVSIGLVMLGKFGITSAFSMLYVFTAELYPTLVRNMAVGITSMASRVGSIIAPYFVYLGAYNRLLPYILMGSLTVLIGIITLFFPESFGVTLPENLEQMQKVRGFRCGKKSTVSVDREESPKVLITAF
Put plainly: TP_TRANSPORTER: uptake in Octn1-HEK cells. In kind it is functional, cell-based. To be noted: human, hek293.

For series [5], the target named is T3, Octn2 (Organic cation/carnitine transporter 2). The series can be described thus: TP_TRANSPORTER: inhibition of carnitine uptake by gamma-butyrobetaine at 5uM in Octn2-HEK cells. Format: functional, cell-based, HEK293. On the set-up: scale not given: the % may be the effect or the level left. Particulars: human, probe carnitine, read-out: Activity.
Series [6] deals with T2, Solute carrier family 22 member 21 (Mus musculus). The series can be described thus: TP_TRANSPORTER: inhibition of carnitine transport by gamma-butyrobetaine at 5uM in Octn3-HEK cells. In kind it is functional, cell-based. On the set-up: scale not given: the % may be the effect or the level left. Particulars: HEK293.
For series [7] the target is unchanged. Put plainly: TP_TRANSPORTER: inhibition of carnitine uptake by Octanoyl-carnitine at 5uM in Octn3-HEK cells. Format: functional, cell-based. On the set-up: scale not given: the % may be the effect or the level left. To be noted: HEK293.
For series [8], the target named is T3, Octn2 (Organic cation/carnitine transporter 2). The series can be described thus: TP_TRANSPORTER: inhibition of carnitine uptake by Octanoyl-carnitine at 5uM in Octn2-HEK cells. In kind it is functional, cell-based, HEK293. Details: scale not given: the % may be the effect or the level left. Particulars: human, probe carnitine, read-out: Activity.
In series [9] the target is T2, Solute carrier family 22 member 21 (Mus musculus). Put plainly: TP_TRANSPORTER: inhibition of carnitine in Octn3-HEK cells. In kind it is functional, cell-based. Particulars: HEK293.
For series [10], the target named is T3, Octn2 (Organic cation/carnitine transporter 2). The series can be described thus: TP_TRANSPORTER: inhibition of carnitine transport by Palmitoyl-carnitine at 5uM in Octn2-HEK cells. In kind it is functional, cell-based, HEK293. Details: scale not given: the % may be the effect or the level left. Particulars: human, probe carnitine, read-out: Activity.
Series [11] has as its target T2, Solute carrier family 22 member 21 (Mus musculus). The series can be described thus: TP_TRANSPORTER: inhibition of carnitine uptake by Acetyl-L-carnitine at 5uM in Octn3-HEK cells. In kind it is functional, cell-based. Details: scale not given: the % may be the effect or the level left. To be noted: HEK293.
The target of series [12] is T1, Organic cation/carnitine transporter 2. Put plainly: TP_TRANSPORTER: inhibition of carnitine uptake by Acetyl-L-carnitine at 5uM in Octn2-HEK cells. Details: scale not given: the % may be the effect or the level left. In kind it is functional, cell-based. To be noted: human, hek293, 5 µM.
Series [13] has the same target. Put plainly: TP_TRANSPORTER: inhibition of carnitine uptake by Glycine betaine at […] in Octn2-HEK cells. In kind it is functional, cell-based. Details: scale not given: the % may be the effect or the level left. Particulars: human, hek293.
Series [14] concerns the target T2, Solute carrier family 22 member 21 (Mus musculus). Put plainly: TP_TRANSPORTER: inhibition of carnitine uptake by Glycine betaine at 500uM in Octn3-HEK cells. In kind it is functional, cell-based. On the set-up: scale not given: the % may be the effect or the level left. Particulars: HEK293.
Substrate in series [15]: C[N+](C)(C)CC(O)CC(=O)[O-]
Put plainly: TP_TRANSPORTER: uptake in Octn3-HEK cells. In kind it is functional, cell-based. To be noted: HEK293.

Substrate in series [16]: C[N+](C)(C)CC(O)CC(=O)[O-]
The series can be described thus: TP_TRANSPORTER: uptake in Octn2-HEK cells. In kind it is functional, cell-based, HEK293.

Substrate in series [17]: CC[N+](CC)(CC)CC
Put plainly: cells, lysate or membranes named.

Turning to `CCCC(=O)OC(CC(=O)[O-])C[N+](C)(C)C` (stereo not drawn) [Butyryl-carnitine], the Activity in [1] was 66%; in series [2] it was 13%. Consider `C[N+](C)(C)CCO` [CHOLINE], for which the activity at 500 µM in series [3] is 75%.

As to `C[N+](C)(C)CC(O)CC(=O)[O-]` (stereo not drawn) [CARNITINE], the Activity entry in series [4] was “substrate []”.

`C[N+](C)(C)CCCC(=O)[O-]`: the activity at 5 µM in [5] was found to be 77%. In addition, in series [6], the Activity was 11%. As to `CCCCCCCC(=O)OC(CC(=O)O)C[N+](C)(C)C` (stereo not drawn) [Octanoyl-carnitine], the Activity in [7] is 15%. The activity at 5 µM in series [8] was 38%. Turning to `CCCCCCCCCCCCCCCC(=O)OC(CC(=O)[O-])C[N+](C)(C)C` (stereo not drawn) [Palmitoyl-carnitine], the Activity in series [9] was 54 µM. The activity at 5 µM in series [10] was 28%. Regarding `CC(=O)O[C@H](CC(=O)[O-])C[N+](C)(C)C` [ACETYLCARNITINE], the results for the Activity in series [11] and in series [12] were 21% and 67%, respectively. Regarding `C[N+](C)(C)CC(=O)O` [BETAINE], the Activity in series [13] was 56%; in [14], 84%.

B1: Solute carrier family 22 member 21 (Mus musculus), Q9WTN6 (protein)
chain: T2 sequence (whole entry)
The term Km denotes the concentration of substrate that gives half-maximal velocity. B1: in [15], the Km stood at 3 µM.

B2: Organic cation/carnitine transporter 2 (Mus musculus) (protein)
chain: T1 sequence (Q9Z0E8 whole entry)
Turning to B2, the Km amounted to 22 µM in series [16] and 216 µM in series [17].

B3: Solute carrier family 22 member 4 (Mus musculus) (protein)
chain: T4 sequence (Q9Z306 whole entry)
Regarding B3, in [17], the Km was 452 µM.
